Tested on: SW 1271 complex spheroids, viability
Test: Anticancer human tumor SW 1271 cell line growth inhibition [LSD1];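 note: spheroids exposed to agents for 7 days before luminescence read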;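 for viability, T/C: 100% = DMSO vehicle control viability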
Conditions: for IC50: curve of first compound; for viability, T/C: stronger effect = lower value
Source text: Multicellular complex tumor spheroid response to LSD1 Inhibitor Iadademstat in combination with a variety of drugs and investigational agents in selected tumor cell lines
The current study was undertaken to assess response to LSD1 inhibitors in combination with standard-of-care drugs and investigational agents in solid tumor complex spheroid models as well as in the K-562 leukemia. Complex spheroids include a stromal component modeled by human endothelial cells (HUVEC) and fibroblasts modeled by human mesenchymal stem cells (MSCs). The concentration ranges selected for each drug and investigational agent were based upon clinically achievable concentrations if the clinical Cmax of the agent was known.
Compounds. The drugs and investigational agents used in this study are listed on Table 1. All of the agents used, including staurosporine (NSC755774) and gemcitabine (NSC613327), were obtained from the Developmental Therapeutics Program, NCI. FDA-approved anticancer drugs are available from the NCI at http://dtp.nci.nih.gov/branches/dscb/oncology_drugset_explanation.html. Drugs and investigational agents were >95% pure by proton nuclear magnetic resonance (NMR) and liquid chromatography/mass spectrometry (LC/MS). Stock solutions were prepared at 400x in DMSO, stored at -70 degrees C, and diluted in fresh medium prior to their use. The final concentration of DMSO in cell culture wells never exceeded 0.25% (v/v). The FDA-approved anticancer drug set is available from the Developmental Therapeutics Program at https://dtp.cancer.gov/organization/dscb/obtaining/available_plates.htm. All drugs and investigational agents were tested over a range starting from a high concentration at or near the clinical Cmax and decreasing in half-log increments. If the clinical Cmax for an agent had not been determined, the highest concentration tested was 10 microM.
Cell Lines. The patient-derived cancer cell (PDC) lines: 292921-168-R-J2-PDC, K24384-001-R-PDC, and 521955-158-R2-J5-PDC pancreatic carcinomas, 556581-035-R-J1 ovarian carcinoma, 324938-238-R-J1-PDC, 855422-203-R-J1-PDC and 883617-216-R-J1-PDC urothelial bladder carcinomas, 743489-274-T-PDC renal cell carcinoma, 138582-R-J1 Merkel cell tumor, K60290-347-R-J1 and K57222-313-R-J1-PDC glioblastomas, 653999-131-R-J2-PDC, LG0703-F948-PDC, and 349418-098-R-PDC non-small cell lung carcinomas, 885512-296-R-J2-PDC, 171881-019-R-J1-PDC breast carcinomas and 186277-243-T-J2-PDC and 233499-124-R-J2-PDC colon carcinomas were obtained from the NCI Patient-Derived Models Repository (PDMR, https://pdmr.cancer.gov). The established cell lines NCI/ADR-RES (RRID:CVCL_14520 and OVCAR-5 (RRID:CVCL_1628) ovarian carcinomas, 786-O (RRID:CVCL_1051) and A498 (RRID:CVCL_A498) renal cell carcinoma, NCI-H211 (ATCC, cat. CRL-5824; RRID:CVCL_1529), NCI-H196 (ATCC, cat. CRL-5823, RRID:CVCL_1509), SW 1271 (ATCC, cat. CRL-2177, RRID:CVCL_1716) and NCI-H1876 (ATCC, cat. CRL-5902, RRID:CVCL_1503) small cell lung carcinomas, MDA-MB-231 (RRID:CVCL_0062) and MDA-MB-468 (RRID:CVCL_0419)breast carcinomas (10-12). Pooled donor human umbilical vein endothelial cells (HUVEC, Lonza, cat. CC-2519) and human mesenchymal stem cells (hMSC, Lonza, cat. PT-2501) were purchased from Lonza (Walkersville, MD).
Cell Culture. All cells were maintained in an incubator at 37 degrees C and 5% CO2 with 95% humidity. The PDC lines were cultured according to standard operating procedures established by the NCI PDMR (https://pdmr.cancer.gov). Briefly all PDCs were thawed and cultured in Matrigel-coated flasks prepared with a working solution of 1X Ham's F-12 nutrient mix, without supplementation (Invitrogen, Waltham, MA, cat. 11765054), 100 U/mL penicillin-streptomycin (Invitrogen, cat. 15140122), and 2.5% Matrigel (Corning Inc., Corning, NY, cat. 354248) for the first three passages. […]

[1] = second compound 0.1 µM, first compound 0.00316 µM
[2] = second compound 0.1 µM, first compound 0.01 µM
[3] = second compound 0.1 µM, first compound 0.0316 µM
[4] = second compound 0.1 µM, first compound 0.1 µM
[5] = second compound 0.1 µM, first compound 0.316 µM
[6] = second compound 0.1 µM, first compound 1 µM
[7] = second compound 0.316 µM, first compound 0.00316 µM
[8] = second compound 0.316 µM, first compound 0.01 µM
[9] = second compound 0.316 µM, first compound 0.0316 µM
[10] = second compound 0.316 µM, first compound 0.1 µM
[11] = second compound 0.316 µM, first compound 0.316 µM
[12] = second compound 0.316 µM, first compound 1 µM
[13] = second compound 1 µM, first compound 0.00316 µM
[14] = second compound 1 µM, first compound 0.01 µM
[15] = second compound 1 µM, first compound 0.0316 µM
[16] = second compound 1 µM, first compound 0.1 µM
[17] = second compound 1 µM, first compound 0.316 µM
[18] = second compound 1 µM, first compound 1 µM
[19] = second compound 3.16 µM, first compound 0.00316 µM
[20] = second compound 3.16 µM, first compound 0.01 µM
[21] = second compound 3.16 µM, first compound 0.0316 µM
[22] = second compound 3.16 µM, first compound 0.1 µM
[23] = second compound 3.16 µM, first compound 0.316 µM
[24] = second compound 3.16 µM, first compound 1 µM
[25] = second compound 10 µM, first compound 0.00316 µM
[26] = second compound 10 µM, first compound 0.01 µM
[27] = second compound 10 µM, first compound 0.0316 µM
[28] = second compound 10 µM, first compound 0.1 µM
[29] = second compound 10 µM, first compound 0.316 µM
[30] = second compound 10 µM, first compound 1 µM

Structure (SMILES) | IC50 (second compound 0.1 µM) [nM] | IC50 (second compound 0.316 µM) [nM] | IC50 (second compound 1 µM) [nM] | IC50 (second compound 3.16 µM) [nM] | IC50 (second compound 10 µM) [nM] | viability, T/C [1] [%] | viability, T/C [2] [%] | viability, T/C [3] [%] | viability, T/C [4] [%] | viability, T/C [5] [%] | viability, T/C [6] [%] | viability, T/C [7] [%] | viability, T/C [9] [%] | viability, T/C [10] [%] | viability, T/C [15] [%] | viability, T/C [16] [%] | viability, T/C [21] [%] | viability, T/C [22] [%] | viability, T/C [27] [%] | viability, T/C [28] [%] | other results
Nc1ncn(C2CC(O)C(CO)O2)c(=O)n1 (stereo not given) + NC1CC1c1ccc(-c2cccc(O)c2)cc1 | > 1000 | > 1000 | > 1000 | > 1000 | > 1000 | 96.2 | 77.9 | 84.7 | 62.4 | 66.7 | 81 | 68 | 75.2 | 71.6 | 81.8 | 56.2 | 69.8 | 63.9 | 61 | 57.9 | viability, T/C [8]: 73.2%; viability, T/C [11]: 70.5%; viability, T/C [12]: 77.7%; viability, T/C [13]: 76.4%; viability, T/C [14]: 73.5%; viability, T/C [17]: 69.5%; viability, T/C [18]: 64.1%; viability, T/C [19]: 69.5%; viability, T/C [20]: 69.7%; viability, T/C [23]: 52.7%; viability, T/C [24]: 72.7%; viability, T/C [25]: 69.5%; viability, T/C [26]: 70.6%; viability, T/C [29]: 57.7%; viability, T/C [30]: 59%
COc1ccc([C@@H](O)c2cc(-c3ncnc4cc(N5CCOCC5)ccc34)c(F)cc2Cl)nn1 + NC1CC1c1ccc(-c2cccc(O)c2)cc1 | 616 | 463 | 664 | 355 | 351 |  |  | 78.6 | 79.9 | 55 | 44.4 |  | 76.4 | 76.8 | 72.9 | 76.6 | 69.5 | 64.8 | 60.5 | 58.4 | viability, T/C (second compound 0.1 µM, first compound 3.16 µM): 31%; viability, T/C (second compound 0.1 µM, first compound 10 µM): 21.9%; viability, T/C [11]: 52.2%; viability, T/C [12]: 38%; viability, T/C (second compound 0.316 µM, first compound 3.16 µM): 37.3%; viability, T/C (second compound 0.316 µM, first compound 10 µM): 22.1%; viability, T/C [17]: 60.3%; viability, T/C [18]: 43.7%; viability, T/C (second compound 1 µM, first compound 3.16 µM): 31.7%; viability, T/C (second compound 1 µM, first compound 10 µM): 26.4%; viability, T/C [23]: 49.2%; viability, T/C [24]: 38.5%; viability, T/C (second compound 3.16 µM, first compound 3.16 µM): 30.5%; viability, T/C (second compound 3.16 µM, first compound 10 µM): 19.7%; viability, T/C [29]: 50.3%; viability, T/C [30]: 40.2%; viability, T/C (second compound 10 µM, first compound 3.16 µM): 27.5%; viability, T/C (second compound 10 µM, first compound 10 µM): 20.5%
CC[C@@]1(O)C(=O)OCc2c1cc1n(c2=O)Cc2cc3c(CN(C)C)c(O)ccc3nc2-1 + NC1CCC(NC2CC2c2ccccc2)CC1 | > 100 | > 100 | 66.1 | 71.6 | > 100 | 78.8 | 63 | 58 | 56.4 |  |  | 71.6 | 62 | 58.9 | 59 | 45.4 | 49.7 | 49.6 | 57.5 | 52.2 | viability, T/C (second compound 0.1 µM, first compound 0.000316 µM): 89.2%; viability, T/C (second compound 0.1 µM, first compound 0.001 µM): 93.8%; viability, T/C (second compound 0.316 µM, first compound 0.000316 µM): 90%; viability, T/C (second compound 0.316 µM, first compound 0.001 µM): 74.2%; viability, T/C [8]: 72.5%; viability, T/C (second compound 1 µM, first compound 0.000316 µM): 73.4%; viability, T/C (second compound 1 µM, first compound 0.001 µM): 94.5%; viability, T/C [13]: 80.1%; viability, T/C [14]: 66.7%; viability, T/C (second compound 3.16 µM, first compound 0.000316 µM): 95.9%; viability, T/C (second compound 3.16 µM, first compound 0.001 µM): 78.2%; viability, T/C [19]: 72.9%; viability, T/C [20]: 68.3%; viability, T/C (second compound 10 µM, first compound 0.000316 µM): 88.3%; viability, T/C (second compound 10 µM, first compound 0.001 µM): 84.2%; viability, T/C [25]: 78.2%; viability, T/C [26]: 60.3%

Reference: PubChem BioAssay AID1918941 (Molecular Pharmacology Branch, DTP, NCI, 2023)
